Experimental data reported in patent US20170100489A1, “POLYETHYLENE GLYCOL-MODIFIED INTEGRIN BLOCKER HM-3 AND USE THEREOF” (HANMEI XU, priority 2012, published 2017).
Read-outs that look alike come from different tables or passages of the source. Where a SMILES comes first, the peptide text is derived from it. Where no end group is shown, it is not given here. mPEG‑SC20k = methoxy polyethylene glycol-succinimidyl-carbonate, 20000 Da

Tests used:
[1] = tested on: human esophageal cancer Ec109 xenograft tumors; type: in vivo, nude mice
Protocol: Tumor diameter was measured with a vernier caliper. […] Tumor volume formula: […]
a, b respectively represent the length and width. […] The formula is as follows: […]
TRTV: Treatment Group RTV; CRTV: Negative Control Group RTV

[2] = tested on: sarcoma HT-1080 xenograft tumors; experiment: Tumor growth inhibition, HT-1080 xenograft
Protocol: Tumor diameter was measured with a vernier caliper. […] After administration, all mice were sacrificed. Stripped the tumors and weighed.

[3] = tested on: human nasopharyngeal cancer CNE xenograft tumors; experiment: Tumor growth inhibition, CNE xenograft
Protocol: (§1) Picked the tumor tissue of vigorous growth and was cut into pieces of about 1.5 mm^3. Under sterile conditions, the tumor tissue was inoculated subcutaneously on the right of nude mice. Tumor diameter was measured with a vernier caliper. The animals which had tumors with a size of 100-200 mm^3 were randomly divided into groups. The effect of polypeptide on anti-tumor was dynamically observed through the method of measuring tumor diameter. The times of measuring tumor diameter were once 2 days, and meantime, weighed mice. The mice in experimental group were infused polypeptide through tail vein, once 3 days. The mice in the placebo group were injected saline with the same volume. Tumor volume formula:
a, b respectively represent the length and width. According to the result of measurement, calculate the relative tumor volume. Evaluation of antitumor activity is relative tumor proliferation rate T/C(%). The formula is as follows: T/C(%)^−TRTV/CRTV×100%

[4] = tested on: human lung cancer H460 xenograft tumors; experiment: Tumor growth inhibition, H460 xenograft
Protocol: as §1
(§2) a, b respectively represent the length and width. According to the result of measurement, calculate the relative tumor volume. Evaluation of antitumor activity is relative tumor proliferation rate T/C(%). The formula is as follows: T/C(%)^=TRTV/CRTV×100%
(§3) TRTV: Treatment group RTV; CRTV: negative control group RTV

[5] = tested on: human kidney cancer A498 xenograft tumors; experiment: Tumor growth inhibition, A498 xenograft
Protocol: Human kidney cancer A498 cell lines in logarithmic growth phase were picked and made into 5×10^7/ml cell suspension of under sterile conditions, and then 0.1 ml suspension was inoculated subcutaneously at the right armpit of nude mice. Tumor diameter was measured with a vernier caliper. The animals which had tumors with a size of 100-200 mm^3 were randomly divided into groups. The effect of polypeptide on anti-tumor was dynamically observed through the method of measuring tumor diameter. The times of measuring tumor diameter were once 2 days, and meantime, weighed mice. The mice in experimental group were infused polypeptide through tail vein. The mice in the placebo group were injected saline with the same volume, once 1 day; Taxol group: 10 mg/kg, once 1 week; Endostar group: 2.5 mg/kg, once 1 day; The groups of high, intermediate and low polypeptide: 6, 3, 1.5 mg/kg, respectively, once 1 day. After administration, all mice were sacrificed. Stripped the tumors and weighed.

[6] = tested on: human endometrial cancer HHUA xenograft tumors; experiment: Tumor growth inhibition, HHUA xenograft
Protocol: Human endometrial cancer HHUA cell lines in logarithmic growth phase were picked, and made into 5×10^7/ml cell suspension of under sterile conditions, and then 0.1 ml suspension was inoculated subcutaneously at the right armpit of nude mice. Tumor diameter was measured with a vernier caliper. The animals which had tumors with a size of 100-200 mm^3 were randomly divided into groups. The effect of polypeptide on anti-tumor was dynamically observed through the method of measuring tumor diameter. The times of measuring tumor diameter were once 2 days, and meantime, weighed mice. The mice in experimental group were infused polypeptide through tail vein. The mice in the placebo group were injected saline with the same volume, once 1 day; Taxol group: 10 mg/kg, once 1 week; Endostar group: 2.5 mg/kg, once 1 day; The groups of high, intermediate and low polypeptide: 6, 3, 1.5 mg/kg, respectively, once 1 day. After administration, all mice were sacrificed. Stripped the tumors and weighed.

[7] = tested on: human cervical cancer HeLa xenograft tumors; experiment: Tumor growth inhibition, HeLa xenograft
Protocol: Human cervical cancer HeLa cell lines in logarithmic growth phase were picked, and made into 5×10^7/ml cell suspension of under sterile conditions, and then 0.1 ml suspension was inoculated subcutaneously at the right armpit of nude mice. Tumor diameter was measured with a vernier caliper. The animals which had tumors with a size of 100-200 mm^3 were randomly divided into groups. The effect of polypeptide on anti-tumor was dynamically observed through the method of measuring tumor diameter. The times of measuring tumor diameter were once 2 days, and meantime, weighed mice. The mice in experimental group were infused polypeptide through tail vein. The mice in the placebo group were injected saline with the same volume, once 1 day; Taxol group: 10 mg/kg, once 1 week; Endostar group: 2.5 mg/kg, once 1 day; The groups of high, intermediate and low polypeptide: 6, 3, 1.5 mg/kg, respectively, once 1 day. After administration, all mice were sacrificed. Stripped the tumors and weighed.

[8] = tested on: human cancer 5637 xenograft tumors; experiment: Tumor growth inhibition, 5637 xenograft
Protocol: (§4) Human testicular cancer 5637 cell lines in logarithmic growth phase were picked, and made into 5×10^7/ml cell suspension of under sterile conditions, and then 0.1 ml suspension was inoculated subcutaneously at the right armpit of nude mice. Tumor diameter was measured with a vernier caliper. The animals which had tumors with a size of 100-200 mm^3 were randomly divided into groups. The effect of polypeptide on anti-tumor was dynamically observed through the method of measuring tumor diameter. The times of measuring tumor diameter were once 2 days, and meantime, weighed mice. The mice in experimental group were infused polypeptide through tail vein. […] After administration, all mice were sacrificed. Stripped the tumors and weighed.

[9] = tested on: human testicular cancer 5637 xenograft tumors; experiment: Tumor growth inhibition, 5637 xenograft
Protocol: as §4

[10] = tested on: human colon cancer HT-29 xenograft tumors; experiment: Tumor growth inhibition, HT-29 xenograft
Protocol: Human colon cancer HT-29 cell lines in logarithmic growth phase were picked, and made into 5×10^7/ml cell suspension of under sterile conditions, and then 0.1 ml suspension was inoculated subcutaneously at the right armpit of nude mice. Tumor diameter was measured with a vernier caliper. The animals which had tumors with a size of 100-200 mm^3 were randomly divided into groups. The effect of polypeptide on anti-tumor was dynamically observed through the method of measuring tumor diameter. The times of measuring tumor diameter were once 2 days, and meantime, weighed mice. The mice in experimental group were infused polypeptide through tail vein. The mice in the placebo group were injected saline with the same volume, once 1 day; Taxol group: 10 mg/kg, once 1 week; Endostar group: 2.5 mg/kg, once 1 day; The groups of high, intermediate and low polypeptide: 6, 3, 1.5 mg/kg, respectively, once 1 day. After administration, all mice were sacrificed. Stripped the tumors and weighed.

[11] = tested on: human thyroid cancer SW-579 xenograft tumors; experiment: Tumor growth inhibition, SW-579 xenograft; conditions: for Final weight / Rate of inhibiting tumors / Tumor weight: Once 1 day
Protocol: as §1, §2

[12] = tested on: human gastric cancer MGC803 xenograft tumors; experiment: Tumor growth inhibition, MGC803 xenograft
Protocol: as §1, §2, §3

[13] = tested on: human gallbladder cancer GBC-SD xenograft tumors; experiment: Tumor growth inhibition, GBC-SD xenograft
Protocol: Human gallbladder cancer GBC-SD cell lines in logarithmic growth phase were picked and made into 5×10^7/ml cell suspension of under sterile conditions, and then 0.1 ml suspension was inoculated subcutaneously at the right armpit of nude mice. Tumor diameter was measured with a vernier caliper. The animals which had tumors with a size of 100-200 mm^3 were randomly divided into groups. The effect of polypeptide on anti-tumor was dynamically observed through the method of measuring tumor diameter. The times of measuring tumor diameter were once 2 days, and meantime, weighed mice. The mice in experimental group were infused polypeptide through tail vein. The mice in the placebo group were injected saline with the same volume, once 1 day; Taxol group: 10 mg/kg, once 1 week; Endostar group: 2.5 mg/kg, once 1 day; The groups of high, intermediate and low polypeptide: 6, 3, 1.5 mg/kg, respectively, once 1 day. After administration, all mice were sacrificed. Stripped the tumors and weighed.

[14] = tested on: human prostate cancer DU-145 xenograft tumors; experiment: Tumor growth inhibition, DU-145 xenograft
Protocol: Human prostate cancer DU-145 cell lines in logarithmic growth phase were picked, and made into 5×10^7/ml cell suspension of under sterile conditions, and then 0.1 ml suspension was inoculated subcutaneously at the right armpit of nude mice. Tumor diameter was measured with a vernier caliper. The animals which had tumors with a size of 100-200 mm^3 were randomly divided into groups. The effect of polypeptide on anti-tumor was dynamically observed through the method of measuring tumor diameter. The times of measuring tumor diameter were once 2 days, and meantime, weighed mice. The mice in experimental group were infused polypeptide through tail vein. The mice in the placebo group were injected saline with the same volume, once 1 day; Cisplatin group: 10 mg/kg, once 1 week; Endostar group: 2.5 mg/kg, once 1 day; The groups of high, intermediate and low polypeptide: 6, 3, 1.5 mg/kg, respectively, once 1 day. After administration, all mice were sacrificed. Stripped the tumors and weighed.

[15] = tested on: human bladder cancer HT1376 xenograft tumors; experiment: Tumor growth inhibition, HT1376 xenograft
Protocol: Human bladder cancer HT1376 cell lines in logarithmic growth phase were picked, and made into 5×10^7/ml cell suspension of under sterile conditions, and then 0.1 ml suspension was inoculated subcutaneously at the right armpit of nude mice. Tumor diameter was measured with a vernier caliper. The animals which had tumors with a size of 100-200 mm^3 were randomly divided into groups. The effect of polypeptide on anti-tumor was dynamically observed through the method of measuring tumor diameter. The times of measuring tumor diameter were once 2 days, and meantime, weighed mice. The mice in experimental group were infused polypeptide through tail vein. The mice in the placebo group were injected saline with the same volume, once 1 day; Taxol group: 10 mg/kg, once 1 week; Endostar group: 2.5 mg/kg, once 1 day; The groups of high, intermediate and low polypeptide: 6, 3, 1.5 mg/kg, respectively, once 1 day. After administration, all mice were sacrificed. Stripped the tumors and weighed.

[16] = tested on: human pancreatic cancer SW-1990 xenograft tumors; experiment: Tumor growth inhibition, SW-1990 xenograft
Protocol: Picked the tumor tissue of vigorous growth and was cut into pieces of about 1.5 mm^3. Under sterile conditions, the tumor tissue was inoculated subcutaneously on the right of nude mice. Tumor diameter was measured with a Vernier caliper. The animals which had tumors with a size of 100-200 mm^3 were randomly divided into groups. The effect of polypeptide on anti-tumor was dynamically observed through the method of measuring tumor diameter. The times of measuring tumor diameter were once 2 days, and meantime, weighed mice. The mice in experimental group were infused polypeptide through tail vein, once 3 days. The mice in the placebo group were injected saline with the same volume.
as §2
TRTV:Treatment group RTV; CRTV: negative control group RTV

[17] = tested on: human ovarian cancer SK-OV-3 xenograft tumors; experiment: Tumor growth inhibition, SK-OV-3 xenograft
Protocol: Human ovarian cancer SK-OV-3 cell lines in logarithmic growth phase were picked, and made into 5×10^7/ml cell suspension of under sterile conditions, and then 0.1 ml suspension was inoculated subcutaneously at the right armpit of nude mice. Tumor diameter was measured with a vernier caliper. The animals which had tumors with a size of 100-200 mm^3 were randomly divided into groups. The effect of polypeptide on anti-tumor was dynamically observed through the method of measuring tumor diameter. The times of measuring tumor diameter were once 2 days, and meantime, weighed mice. The mice in experimental group were infused polypeptide through tail vein. The mice in the placebo group were injected saline with the same volume, once 1 day; Cisplatin group: 10 mg/kg, once 1 week; Endostar group: 2.5 mg/kg, once 1 day; The groups of high, intermediate and low polypeptide: 6, 3, 1.5 mg/kg, respectively, once 1 day. After administration, all mice were sacrificed. Stripped the tumors and weighed.

[18] = tested on: human breast cancer MDA-MB-231 xenograft tumors; experiment: Tumor growth inhibition, MDA-MB-231 xenograft
Protocol: Picked the tumor tissue of vigorous growth and was cut into pieces of about 1.5 mm^3. Under sterile conditions, the tumor tissue was inoculated subcutaneously on the right of nude mice. Tumor diameter was measured with a vernier caliper. The animals which had tumors with a size of 100-200 mm^3 were randomly divided into groups. The effect of polypeptide on anti-tumor was dynamically observed through the method of measuring tumor diameter. The times of measuring tumor diameter were once 2 days, and meantime, weighed mice. The mice in experimental group were infused polypeptide through tail vein, once 3 days. The mice in the placebo group were injected saline with the same volume. Tumor volume formula: TV=0.52×a×b^2
as §2, §3

[19] = Immunogenicity assay, antibody titers in serum by ELISA; conditions: 3.0 mg/kg iv once a day, 8 weeks; FIG. 2
[20] = Pharmacokinetics of mPEG-SC20k-HM-3 and HM-3 in rats (plasma concentration by ELISA)
integrin ανβ3 = biological target: T1, integrin ανβ3 (human, UniProt P06756 31-1048; P05106 27-788); experiment: flow cytometry, FITC-labeled peptide on Bel-7402 and MCF-7 cells pre-incubated with function-blocking anti-integrin antibodies
T1 construct: whole, on cells; Endogenous integrin on Bel-7402 and MCF-7 cells; also called alpha v beta 3
T1 sequence (P06756 31-1048, chain 1 of 2): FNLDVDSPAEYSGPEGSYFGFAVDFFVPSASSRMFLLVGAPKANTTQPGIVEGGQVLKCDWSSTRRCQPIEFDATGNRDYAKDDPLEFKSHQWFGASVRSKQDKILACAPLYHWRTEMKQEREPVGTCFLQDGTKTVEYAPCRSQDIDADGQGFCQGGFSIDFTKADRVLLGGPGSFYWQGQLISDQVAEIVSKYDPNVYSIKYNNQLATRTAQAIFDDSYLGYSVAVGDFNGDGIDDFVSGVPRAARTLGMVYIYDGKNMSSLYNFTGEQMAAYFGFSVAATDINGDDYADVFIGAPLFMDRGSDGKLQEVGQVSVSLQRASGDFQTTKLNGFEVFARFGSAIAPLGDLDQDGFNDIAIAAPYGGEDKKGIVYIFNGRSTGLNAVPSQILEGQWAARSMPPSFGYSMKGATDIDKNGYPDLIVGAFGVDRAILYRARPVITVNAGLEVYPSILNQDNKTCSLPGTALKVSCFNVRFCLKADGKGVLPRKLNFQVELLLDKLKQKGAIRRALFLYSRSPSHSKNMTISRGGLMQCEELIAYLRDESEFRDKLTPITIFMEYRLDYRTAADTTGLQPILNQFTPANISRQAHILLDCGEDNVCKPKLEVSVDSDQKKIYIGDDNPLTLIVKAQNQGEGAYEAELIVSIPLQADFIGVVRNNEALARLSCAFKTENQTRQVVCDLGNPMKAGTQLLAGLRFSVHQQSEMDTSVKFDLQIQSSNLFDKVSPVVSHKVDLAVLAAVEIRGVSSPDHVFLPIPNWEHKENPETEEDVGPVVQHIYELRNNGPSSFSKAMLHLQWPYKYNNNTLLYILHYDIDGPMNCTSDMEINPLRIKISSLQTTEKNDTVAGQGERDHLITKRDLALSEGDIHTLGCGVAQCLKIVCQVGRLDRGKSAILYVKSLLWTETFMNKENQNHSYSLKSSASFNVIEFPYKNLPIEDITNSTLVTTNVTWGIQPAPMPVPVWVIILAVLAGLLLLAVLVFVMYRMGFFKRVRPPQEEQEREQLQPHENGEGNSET
T1 sequence (P05106 27-788, chain 2 of 2): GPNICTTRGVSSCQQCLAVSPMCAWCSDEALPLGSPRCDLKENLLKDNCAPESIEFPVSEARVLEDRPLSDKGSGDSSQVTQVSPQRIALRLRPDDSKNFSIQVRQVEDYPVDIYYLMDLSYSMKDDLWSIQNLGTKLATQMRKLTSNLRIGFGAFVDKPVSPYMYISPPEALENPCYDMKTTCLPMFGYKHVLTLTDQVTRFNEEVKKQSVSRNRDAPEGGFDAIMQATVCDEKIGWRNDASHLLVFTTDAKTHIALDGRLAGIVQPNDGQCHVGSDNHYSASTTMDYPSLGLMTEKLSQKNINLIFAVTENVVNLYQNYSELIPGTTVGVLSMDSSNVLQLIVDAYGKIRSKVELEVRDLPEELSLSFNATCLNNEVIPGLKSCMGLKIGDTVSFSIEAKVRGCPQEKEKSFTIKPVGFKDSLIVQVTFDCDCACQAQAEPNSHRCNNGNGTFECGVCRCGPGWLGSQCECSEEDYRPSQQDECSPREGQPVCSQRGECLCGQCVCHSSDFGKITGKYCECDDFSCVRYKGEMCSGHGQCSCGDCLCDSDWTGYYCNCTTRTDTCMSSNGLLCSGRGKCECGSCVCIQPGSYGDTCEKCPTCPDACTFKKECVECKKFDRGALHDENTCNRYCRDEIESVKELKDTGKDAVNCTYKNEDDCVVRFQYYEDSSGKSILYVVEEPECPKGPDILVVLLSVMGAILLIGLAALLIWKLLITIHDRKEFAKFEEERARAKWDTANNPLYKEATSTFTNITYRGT

integrin α5β1 = biological target: T2, integrin α5β1 (human, UniProt P08648 42-1049; P05556 21-798); experiment: as above
T2 construct: whole, on cells; Endogenous integrin on Bel-7402 and MCF-7 cells; also called alpha 5 beta 1
T2 sequence (P08648 42-1049, chain 1 of 2): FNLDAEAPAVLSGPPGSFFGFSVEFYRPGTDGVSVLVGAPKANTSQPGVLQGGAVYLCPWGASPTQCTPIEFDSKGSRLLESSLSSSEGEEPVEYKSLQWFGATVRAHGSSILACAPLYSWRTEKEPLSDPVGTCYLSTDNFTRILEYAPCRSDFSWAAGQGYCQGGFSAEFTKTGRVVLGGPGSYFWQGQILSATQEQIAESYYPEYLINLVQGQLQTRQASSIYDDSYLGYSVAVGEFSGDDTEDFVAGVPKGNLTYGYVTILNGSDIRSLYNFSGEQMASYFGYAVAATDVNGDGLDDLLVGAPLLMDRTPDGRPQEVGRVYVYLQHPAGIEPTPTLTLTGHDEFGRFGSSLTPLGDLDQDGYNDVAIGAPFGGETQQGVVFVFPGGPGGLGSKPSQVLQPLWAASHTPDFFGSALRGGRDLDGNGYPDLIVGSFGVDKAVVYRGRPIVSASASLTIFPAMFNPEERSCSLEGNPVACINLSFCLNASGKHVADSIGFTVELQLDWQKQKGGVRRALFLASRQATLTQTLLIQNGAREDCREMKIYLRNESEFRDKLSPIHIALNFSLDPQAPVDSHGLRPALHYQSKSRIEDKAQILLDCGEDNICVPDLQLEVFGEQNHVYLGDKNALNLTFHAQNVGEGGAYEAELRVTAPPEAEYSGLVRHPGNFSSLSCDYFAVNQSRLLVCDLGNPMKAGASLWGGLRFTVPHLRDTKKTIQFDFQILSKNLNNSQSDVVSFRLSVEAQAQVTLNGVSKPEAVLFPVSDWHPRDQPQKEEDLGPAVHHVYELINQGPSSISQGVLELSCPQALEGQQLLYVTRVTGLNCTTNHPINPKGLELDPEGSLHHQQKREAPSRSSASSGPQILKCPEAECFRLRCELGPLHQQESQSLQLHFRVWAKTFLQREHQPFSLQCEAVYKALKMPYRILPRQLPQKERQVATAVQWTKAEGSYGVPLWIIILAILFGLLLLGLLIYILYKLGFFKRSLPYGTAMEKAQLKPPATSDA
T2 sequence (P05556 21-798, chain 2 of 2): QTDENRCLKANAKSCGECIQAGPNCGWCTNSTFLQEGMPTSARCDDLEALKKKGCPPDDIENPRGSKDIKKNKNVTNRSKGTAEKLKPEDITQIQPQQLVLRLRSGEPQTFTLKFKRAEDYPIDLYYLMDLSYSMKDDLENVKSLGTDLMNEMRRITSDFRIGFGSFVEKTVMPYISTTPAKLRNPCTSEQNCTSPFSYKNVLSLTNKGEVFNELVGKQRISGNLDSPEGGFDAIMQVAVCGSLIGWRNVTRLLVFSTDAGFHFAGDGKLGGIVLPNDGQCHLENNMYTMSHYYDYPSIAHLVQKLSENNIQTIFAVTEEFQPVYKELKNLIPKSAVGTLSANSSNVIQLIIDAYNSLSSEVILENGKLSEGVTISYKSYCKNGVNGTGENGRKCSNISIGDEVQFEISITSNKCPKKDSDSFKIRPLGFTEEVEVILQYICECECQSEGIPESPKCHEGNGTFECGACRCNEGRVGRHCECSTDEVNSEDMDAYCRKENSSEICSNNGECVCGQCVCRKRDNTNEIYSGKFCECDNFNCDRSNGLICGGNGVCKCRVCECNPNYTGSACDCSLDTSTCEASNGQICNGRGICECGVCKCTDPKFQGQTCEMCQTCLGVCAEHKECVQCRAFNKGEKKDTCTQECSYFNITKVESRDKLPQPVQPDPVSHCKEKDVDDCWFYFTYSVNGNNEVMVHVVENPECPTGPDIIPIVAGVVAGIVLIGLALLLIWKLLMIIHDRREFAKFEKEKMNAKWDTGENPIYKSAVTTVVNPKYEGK

For CC[C@H](C)[C@H](N)C(=O)N[C@H](C(=O)N[C@@H](CCCNC(=N)N)C(=O)N[C@@H](CCCNC(=N)N)C(=O)N[C@@H](C)C(=O)N[C@@H](CC(=O)O)C(=O)N[C@@H](CCCNC(=N)N)C(=O)N[C@@H](C)C(=O)N[C@@H](C)C(=O)N[C@H](C(=O)N1CCC[C@H]1C(=O)NCC(=O)NCC(=O)NCC(=O)NCC(=O)N[C@@H](CCCNC(=N)N)C(=O)NCC(=O)N[C@@H](CC(=O)O)C(=O)O)C(C)C)C(C)C [HM-3, Ile-Val-Arg-Arg-Ala-Asp-Arg-Ala-Ala-Val-Pro-Gly-Gly-Gly-Gly-Arg-Gly-Asp] (H-IVRRADRAAVPGGGGRGD-OH; N-terminus assumed), the “Rate of inhibiting tumors” value ([1]; 1.5 mg/kg, Once 3 days) was 60.57%, the Tumor weight ([1]; 1.5 mg/kg, Once 3 days) was 0.365 g and the “Rate of inhibiting tumors” value ([2]; 1.5 mg/kg, Once 3 days) was 59.24%. The Tumor weight ([2]; 1.5 mg/kg, Once 3 days) was 0.790 g, the Final weight ([3]; 1.5 mg/kg, Once 3 days) was 22.85 g and the “Rate of inhibiting tumors” value ([3]; 1.5 mg/kg, Once 3 days) was 61.03%. For the same molecule, the Tumor weight ([3]; 1.5 mg/kg, Once 3 days) was 0.468 g, the Final weight ([4]; 1.5 mg/kg, Once 3 days) was 21.11 g and the “Rate of inhibiting tumors” value ([4]; 1.5 mg/kg, Once 3 days) was 65.42%. For the same molecule, the Tumor weight ([4]; 1.5 mg/kg, Once 3 days) was 0.274 g, the Final weight ([5]; 1.5 mg/kg, Once 3 days) was 20.88 g and the “Rate of inhibiting tumors” value ([5]; 1.5 mg/kg, Once 3 days) was 54.77%. The Tumor weight ([5]; 1.5 mg/kg, Once 3 days) was 0.427 g, the Final weight ([6]; 1.5 mg/kg, Once 3 days) was 22.85 g and the “Rate of inhibiting tumors” value ([6]; 1.5 mg/kg, Once 3 days) was 54.49%. For the same molecule, the Tumor weight ([6]; 1.5 mg/kg, Once 3 days) was 0.550 g, the Final weight ([7]; 1.5 mg/kg, Once 3 days) was 23.86 g and the “Rate of inhibiting tumors” value ([7]; 1.5 mg/kg, Once 3 days) was 57.25%. The Tumor weight ([7]; 1.5 mg/kg, Once 3 days) was 0.528 g, the Final weight ([8]; 1.5 mg/kg, Once 3 days) was 25.15 g and the “Rate of inhibiting tumors” value ([9]; 1.5 mg/kg, Once 3 days) was 59.40%. The Tumor weight ([9]; 1.5 mg/kg, Once 3 days) was 0.82 g, the Final weight ([10]; 1.5 mg/kg, Once 3 days) was 23.15 g and the “Rate of inhibiting tumors” value ([10]; 1.5 mg/kg, Once 3 days) was 52.59%. The Tumor weight ([10]; 1.5 mg/kg, Once 3 days) was 0.531 g, the Final weight ([11]; 1.5 mg/kg) was 22.70 g and the “Rate of inhibiting tumors” value ([11]; 1.5 mg/kg) was 57.70%. For the same molecule, the Tumor weight ([11]; 1.5 mg/kg) was 0.530 g, the Final weight ([12]; 1.5 mg/kg, Once 3 days) was 22.37 g and the “Rate of inhibiting tumors” value ([12]; 1.5 mg/kg, Once 3 days) was 70.40%. The Tumor weight ([12]; 1.5 mg/kg, Once 3 days) was 0.214 g, the Final weight ([13]; 1.5 mg/kg, Once 3 days) was 20.92 g and the “Rate of inhibiting tumors” value ([13]; 1.5 mg/kg, Once 3 days) was 57.59%. For the same molecule, the Tumor weight ([13]; 1.5 mg/kg, Once 3 days) was 0.450 g, the Final weight ([14]; 1.5 mg/kg, Once 3 days) was 23.64 g and the “Rate of inhibiting tumors” value ([14]; 1.5 mg/kg, Once 3 days) was 56.36%. The Tumor weight ([14]; 1.5 mg/kg, Once 3 days) was 0.809 g, the Final weight ([15]; 1.5 mg/kg, Once 3 days) was 22.30 g and the “Rate of inhibiting tumors” value ([15]; 1.5 mg/kg, Once 3 days) was 50.49%. The Tumor weight ([15]; 1.5 mg/kg, Once 3 days) was 0.504 g, the Final weight ([16]; 1.5 mg/kg, Once 3 days) was 23.10 g and the “Rate of inhibiting tumors” value ([16]; 1.5 mg/kg, Once 3 days) was 57.94%. The Tumor weight ([16]; 1.5 mg/kg, Once 3 days) was 0.582 g, the “Rate of inhibiting tumors” value ([17]; 1.5 mg/kg, Once 3 days) was 49.49% and the Tumor weight ([17]; 1.5 mg/kg, Once 3 days) was 0.639 g. For the same molecule, the Final weight ([18]; 1.5 mg/kg, Once 3 days) was 23.54 g, the “Rate of inhibiting tumors” value ([18]; 1.5 mg/kg, Once 3 days) was 57.14% and the Tumor weight ([18]; 1.5 mg/kg, Once 3 days) was 0.533 g. For the same molecule, the “time of administration at which antibody appeared” value [19] was “third week”, the “AUC0-∞” value ([20]; SD rats, intravenous) was 25.63 mg/L/h and the t1/2p ([20]; SD rats, intravenous) was 27.66 min. For the same molecule, the t1/2β ([20]; SD rats, intravenous) was 27.6 min, the clearance ([20]; both, SD, rat, plasma, iv) was 23 mL/min/kg and the half-life ([20]; both, SD, rat, plasma, iv) was 27.6 min. It also gave an MRT inf ([20]; both, SD, rat, plasma, iv, MRT0-∞, SD rats) of 2.16 min.

In the case of O=P1(N(CCCl)CCCl)NCCCO1 (stereo not drawn) [Cyclophosphamide], the Final weight ([2]; 15 mg/kg, Once 2 days) is reported as 23.85 g, the “Rate of inhibiting tumors” value ([2]; 15 mg/kg, Once 2 days) is reported as 74.15% and the Tumor weight ([2]; 15 mg/kg, Once 2 days) is reported as 0.501 g.

With N.N.[Cl][Pt][Cl] [Cisplatin, reference compound] the “influence on the weight of experimental animals” value ([3]; 10 mg/kg) was “significantly affects the weight”, the Final weight ([3]; 10 mg/kg, Twice 1 week) was 22.33 g and the “Rate of inhibiting tumors” value ([3]; 10 mg/kg, Twice 1 week) was 73.36%. For the same molecule, the Tumor weight ([3]; 10 mg/kg, Twice 1 week) was 0.320 g, the “Rate of inhibiting tumors” value ([9]; 10 mg/kg, Twice 1 week) was 70.74% and the “Rate of inhibiting tumors” value ([14]; 10 mg/kg, Twice a week) was 70.60%. For the same molecule, the Final weight ([17]; 10 mg/kg, Twice 1 week) was 22.19 g, the “Rate of inhibiting tumors” value ([17]; 10 mg/kg, Twice 1 week) was 76.13% and the Tumor weight ([17]; 10 mg/kg, Twice 1 week) was 0.302 g.

With O=c1[nH]cc(F)c(=O)[nH]1 [5-Fu, reference compound] the “toxicity in experimental animals” value ([11]; 10 mg/kg) was “greater toxicity and leads to the weight loss and death”, the Final weight ([11]; 10 mg/kg) was 21.32 g and the “Rate of inhibiting tumors” value ([11]; 10 mg/kg) was 74.50%. The Tumor weight ([11]; 10 mg/kg) was 0.320 g, the Final weight ([16]; 10 mg/kg, Once 1 day) was 22.43 g and the “Rate of inhibiting tumors” value ([16]; 10 mg/kg, Once 1 day) was 76.68%. The Tumor weight ([16]; 10 mg/kg, Once 1 day) was 0.323 g.

For CC(=O)O[C@H]1C(=O)[C@@]2(C)[C@H]([C@H](OC(=O)c3ccccc3)[C@]3(O)C[C@H](OC(=O)[C@H](O)[C@@H](NC(=O)c4ccccc4)c4ccccc4)C(C)=C1C3(C)C)[C@]1(OC(C)=O)CO[C@@H]1C[C@@H]2O [Taxol, reference compound], the “Rate of inhibiting tumors” value ([1]; 10 mg/kg, Once 2 days) was 70.19%, the Tumor weight ([1]; 10 mg/kg, Once 2 days) was 0.276 g and the Final weight ([4]; 10 mg/kg, Once 2 days) was 19.58 g. The “Rate of inhibiting tumors” value ([4]; 10 mg/kg, Once 2 days) was 68.77%, the Tumor weight ([4]; 10 mg/kg, Once 2 days) was 0.248 g and the Final weight ([5]; 10 mg/kg, Once 2 days) was 21.15 g. The “Rate of inhibiting tumors” value ([5]; 10 mg/kg, Once 2 days) was 74.32%, the Tumor weight ([5]; 10 mg/kg, Once 2 days) was 0.242 g and the Final weight ([6]; 10 mg/kg, Twicw 1 week) was 22.19 g. The “Rate of inhibiting tumors” value ([6]; 10 mg/kg, Twicw 1 week) was 75.55%, the Tumor weight ([6]; 10 mg/kg, Twicw 1 week) was 0.295 g and the Final weight ([7]; 10 mg/kg, Once 2 days) was 23.47 g. The “Rate of inhibiting tumors” value ([7]; 10 mg/kg, Once 2 days) was 65.37%, the Tumor weight ([7]; 10 mg/kg, Once 2 days) was 0.428 g and the Final weight ([8]; 10 mg/kg, Twice 1 week) was 24.46 g. The “Rate of inhibiting tumors” value ([9]; 10 mg/kg, Twice 1 week) was 70.74%, the Tumor weight ([9]; 10 mg/kg, Twice 1 week) was 0.590 g and the Final weight ([10]; 10 mg/kg, Once 2 days) was 22.84 g. The “Rate of inhibiting tumors” value ([10]; 10 mg/kg, Once 2 days) was 69.11%, the Tumor weight ([10]; 10 mg/kg, Once 2 days) was 0.346 g and the Final weight ([12]; 10 mg/kg, Once 2 days) was 22.05 g. The “Rate of inhibiting tumors” value ([12]; 10 mg/kg, Once 2 days) was 74.12%, the Tumor weight ([12]; 10 mg/kg, Once 2 days) was 0.187 g and the Final weight ([13]; 10 mg/kg, Once 2 days) was 20.43 g. The “Rate of inhibiting tumors” value ([13]; 10 mg/kg, Once 2 days) was 78.13%, the Tumor weight ([13]; 10 mg/kg, Once 2 days) was 0.232 g and the Final weight ([14]; 10 mg/kg, Twice a week) was 23.81 g. The “Rate of inhibiting tumors” value ([14]; 10 mg/kg, Twice a week) was 70.60%, the Tumor weight ([14]; 10 mg/kg, Twice a week) was 0.545 g and the Final weight ([15]; 10 mg/kg, Once 2 days) was 21.65 g. The “Rate of inhibiting tumors” value ([15]; 10 mg/kg, Once 2 days) was 67.88%, the Tumor weight ([15]; 10 mg/kg, Once 2 days) was 0.327 g and the Final weight ([18]; 10 mg/kg, Once 2 days) was 23.32 g. For the same molecule, the “Rate of inhibiting tumors” value ([18]; 10 mg/kg, Once 2 days) was 73.05% and the Tumor weight ([18]; 10 mg/kg, Once 2 days) was 0.335 g.

B1: mPEG-SC20k-Ile-Val-Arg-Arg-Ala-Asp-Arg-Ala-Ala-Val-Pro-Gly-Gly-Gly-Gly-Arg-Gly-Asp (mPEG-SC20k-HM-3) (peptide)
peptide: {mPEG‑SC20k}-IVRRADRAAVPGGGGRGD
modifications: also: FITC labeled, site not given here
notes: also called integrin antagonist polypeptide
B1: binds (integrin ανβ3); binds (integrin α5β1).
